Assay results reported in US20240391909A1, “DISULFIDE COMPOUND, POLYSULFIDE COMPOUND, AND USE THEREOF” (KUMIAI CHEMICAL INDUSTRY CO., LTD., priority 2021, published 2024).

Test system: Helicoverpa armigera
Assay: Insecticidal activity test against Helicoverpa armigera (cabbage leaf dip)
Assay type: in vivo
Conditions: hatched larvae, 25° C., after 6 days
Method: A wettable powder prepared in accordance with Formulation Example 1 was diluted with water to a concentration of 500 ppm as the active ingredient. A cabbage leaf was dipped in the resultant chemical solution, air-dried, and then put in a plastic cup. Five hatched larvae of Helicoverpa armigera were released therein, and the resultant was covered. Thereafter, the resultant was placed in a constant temperature chamber of 25° C., and after 6 days, the number of dead larvae was counted to obtain a corrected mortality rate in accordance with the following equation of Expression 1. The test was performed in duplicate.

[1] = 500 ppm active ingredient, same test run with comparative formula A, 2-a retested at the same time

Structure (SMILES)	corrected mortality rate [1]	corrected mortality rate (500 ppm active ingredient (wettable powder diluted with water), first test)
Cc1cc(CSSCc2cc(C)[nH]n2)n[nH]1 [formula A, reference compound]	44%	
Cn1nc(C(F)(F)F)c(CSSCc2c(C(F)(F)F)nn(C)c2OC(F)F)c1OC(F)F [Compound 2-a, 1,2-bis[(5-difluoromethoxy-1-methyl-3-trifluoromethylpyrazol-4-yl)methyl]disulfide]	89%	75%
